Values quoted from earlier work, collected in patent US20250099551A1, “THERMOSTABLE FORMULATION OF A21G HUMAN INSULIN” (priority 2018, published 2025).

Conditions: 25° C.

Metal binding stability constant log K for zinc | Structure (SMILES)
6.91 | N[C@@H](Cc1c[nH]cn1)C(=O)O [histidine]
4.93 | O=C(O)CC(O)(CC(=O)O)C(=O)O [citrate]
12.6 | O=C(O)CN(CCOCCOCCN(CC(=O)O)CC(=O)O)CC(=O)O [EGTA]

Structure (SMILES) | Metal binding stability constant log K for zinc
O=C(O)CN(CCN(CC(=O)O)CC(=O)O)CC(=O)O [EDTA] | 14.5
